# Tested on: human vascular smooth muscle cells
# Experiment: DNA synthesis inhibition activity (3H-thymidine intake) in human vascular smooth muscle cells
# Type: cell-based
# Conditions: for inhibiting activity on the growth of human vascular smooth muscle cells: conclusion in words from Table 2; for IC50: vascular cells derived from normal human aorta, 24 hours culture with 3H-thymidine, test compound as ethanol solution, compared with vehicle-treated control
# Description: Determination of DNA synthesis inhibition activity of PGE1 analogs to human vascular smooth muscle cells
# On a 24 well-plate (manufactured by Corning Co.), 1×10^4 cells/well of quintic culture cells of vascular cells derived from normal human aorta (produced by Kurabo Co.) were inoculated and cultured for 2 days. The medium was exchanged from the growth medium (SG2: produced by Kurabo Co.) to the basal medium (SB2: produced by Kurabo Co.), and cultured for 24 hours, to which was added the growth medium (SG2) containing an ethanol solution of the test compound. ^3H-thymidine (produced by Daiichi Chemicals Co.) was added in an amount of 0.01 mci/well and, after culturing for 24 hours, the cultured supernatant was removed by suction, followed by washing with a phosphate buffer solution (PBS).
# 5% Trichloroacetic acid (TCA) was added and, after allowing to stand at 4° C. for 20 minutes, the mixture was washed once with TCA. The mixture was washed with PBS, and dissolved in 0.5 N KOH. Intake of ^3H-thymidine was determined using 20 μl of KOH dissolving the cells which incorporated ^3H-thymidine in the nucleus by means of a liquid scintillation counter (manufactured by Hewlett-Packard Co.).
SMILES,inhibiting activity on the growth of human vascular smooth muscle cells,IC50 [nM]
"O=C1CC(O)C(C=CC(O)CCc2ccccc2)C1CCCc1ccc(C(F)(F)F)cc1 (centres unmarked) [Compound 18, 2-Decarboxy-2,3,4,18,19,20-hexanor-5-(4-trifluoromethylphenyl)-17-phenyl-PGE1]",high inhibiting activity,660
"Cc1ccc(CCCC2C(=O)CC(O)C2C=CC(O)CCc2ccccc2)cc1 (centres unmarked) [Compound 29, 2-Decarboxy-2,3,4,18,19,20-hexanor-5-(4-methylphenyl)-17-phenyl-PGE1]",high inhibiting activity,730
"COC(=O)/C=C/CCCCC1C(=O)CC(O)C1C#CC(O)CCc1ccccc1 (centres unmarked) [Comparative Compound, (2E)-18,19,20-Trinor-17-phenyl-2,3,13,14-tetradehydro-PGE1 methyl ester, reference compound]",–,4360

# Source: US6482990B1, “Prostaglandin E analogues” (Taisho Pharmaceutical Co., Ltd., priority 1999, dated 2002)
